“And” between values parts separate entries of the source, which are not always exact repeats. Equal values may be shown once.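 Five concentrations, 48 hours, 96-well plates. GI50: concentration for 50% inhibition of growth. The concentration for full growth arrest is given as TGI.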
Experiments:
Test in all cases: inhibition of tumour cell growth, NCI panel, 48 h
[1] = test system: HCC-2998 colon
[2] = test system: HT29 colon
[3] = test system: LOX IMVI melanoma
[4] = test system: NCI/ADR-RES ovarian
[5] = test system: PC-3 prostate
[6] = test system: SF-295 CNS
[7] = test system: SF-539 CNS
[8] = test system: SK-OV-3 ovarian
[9] = test system: SNB-19 CNS
[10] = test system: UACC-257 melanoma

CN1CCCN(CCNc2nccc(-c3c(-c4cccc(O)c4)nc4sccn34)n2)S1(=O)=O
GI50 [1]: 13.4 µM and 19.4 µM | TGI [1]: 34.5 µM and > 88.2 µM | GI50 [2]: 2.32 µM and 2.33 µM | TGI [2]: 42.2 µM and > 100 µM | GI50 [3]: 1.55 µM and 1.99 µM | TGI [3]: 16.7 µM and 21.5 µM | GI50 [4]: 22.5 µM and 31.1 µM | TGI [4]: 75 µM and > 100 µM | GI50 [5]: 16.3 µM and 14.6 µM | TGI [5]: 75 µM and > 100 µM | GI50 [6]: 12.9 µM and 13.3 µM | TGI [6]: 32.1 µM and 38.8 µM | GI50 [7]: 18.7 µM and 22.2 µM | TGI [7]: 75 µM and > 100 µM | GI50 [8]: 3.44 µM and 3.21 µM | TGI [8]: 21.3 µM and 17 µM | GI50 [9]: 40 µM and 48.7 µM | TGI [9]: 75 µM and > 100 µM | GI50 [10]: 0.132 µM and 1.01 µM

O=c1oc2ccccc2c(O)c1C=NC(=S)c1ccncc1
TGI [1]: > 100 µM | TGI [2]: > 100 µM | TGI [3]: > 100 µM | TGI [4]: > 100 µM | TGI [5]: > 100 µM | TGI [6]: > 100 µM | TGI [7]: > 100 µM | TGI [8]: > 100 µM | TGI [9]: > 100 µM | TGI [10]: > 100 µM

COc1ccc(C(=O)N2c3ccccc3Sc3ccccc32)c(F)c1
GI50 [1]: 2.38 µM | TGI [1]: > 100 µM | GI50 [2]: 0.38 µM | TGI [2]: 43.3 µM | GI50 [3]: 0.726 µM | TGI [3]: > 100 µM | GI50 [4]: 0.517 µM | TGI [4]: > 100 µM | GI50 [5]: 0.407 µM | TGI [5]: > 100 µM | GI50 [6]: 0.395 µM | TGI [6]: > 100 µM | GI50 [7]: 0.409 µM | TGI [7]: 3.36 µM | GI50 [8]: 4.13 µM | TGI [8]: > 100 µM | GI50 [9]: 0.571 µM | TGI [9]: > 100 µM | GI50 [10]: > 100 µM | TGI [10]: > 100 µM

C=C1C(=O)O[C@@H]2C[C@@]3(C)CC(=O)C=C(C)[C@@H]3C[C@H]12
TGI [1]: 28.1 µM | TGI [2]: 24.6 µM | TGI [3]: 38.1 µM | TGI [4]: 40.4 µM | TGI [5]: 36.3 µM | TGI [6]: > 100 µM | TGI [7]: 36.2 µM | TGI [8]: > 100 µM | TGI [9]: 50 µM | TGI [10]: 41.7 µM

CC1(C)CCC(C)(C)c2cc(C(=O)Nc3ccc(C(=O)O)cc3)ccc21
TGI [1]: 37.2 µM | TGI [2]: > 68.2 µM | TGI [3]: > 58.2 µM | TGI [4]: 47.3 µM | TGI [5]: 51.7 µM | TGI [6]: > 54.7 µM | TGI [7]: 30.3 µM | TGI [8]: > 61.1 µM | TGI [9]: > 66.4 µM | TGI [10]: > 67.7 µM

COc1cc(Nc2ccnc(N3CCN(c4ccnc5cc(Cl)ccc45)CC3)n2)cc(OC)c1
GI50 [1]: 2.8 µM | TGI [1]: > 100 µM | GI50 [2]: 0.46 µM | TGI [2]: 2.96 µM | GI50 [3]: 0.749 µM | TGI [3]: 5.68 µM | GI50 [4]: 1.1 µM | TGI [4]: 5.47 µM | GI50 [5]: 1.4 µM | TGI [5]: > 100 µM | GI50 [6]: 0.289 µM | TGI [6]: 2.13 µM | GI50 [7]: 1.25 µM | TGI [7]: 3.17 µM | GI50 [8]: 3.17 µM | TGI [8]: > 36.3 µM | GI50 [9]: 2.64 µM | TGI [9]: > 100 µM | GI50 [10]: 3.35 µM | TGI [10]: > 100 µM

COc1cc(/C=C2\CN(C)CC3=C2Nc2nc(SC)[nH]c(=O)c2C3c2cc(OC)c(OC)c(OC)c2)cc(OC)c1OC (centres undefined)
GI50 [1]: 1.91 µM | TGI [1]: 3.63 µM | GI50 [2]: 2.35 µM | TGI [2]: 5.22 µM | GI50 [3]: 1.66 µM | TGI [3]: 3.94 µM | GI50 [4]: 3.6 µM | TGI [4]: > 100 µM | GI50 [5]: 3.63 µM | TGI [5]: 32.4 µM | GI50 [6]: 2.24 µM | TGI [6]: 5.47 µM | GI50 [7]: 3.64 µM | TGI [7]: 15.6 µM | GI50 [8]: 3.07 µM | TGI [8]: 12.5 µM | GI50 [9]: 8.65 µM | TGI [9]: 21.9 µM | GI50 [10]: 2.24 µM | TGI [10]: 7.63 µM

C#C[C@]1(O)CC[C@H]2[C@@H]3CC=C4c5nc(Nc6ccccn6)sc5CC[C@]4(C)[C@H]3CC[C@@]21C
GI50 [1]: 1.95 µM | TGI [1]: 5.13 µM | GI50 [2]: 1.6 µM | TGI [2]: 3.94 µM | GI50 [3]: 1.29 µM | TGI [3]: 2.59 µM | GI50 [4]: 1.72 µM | TGI [4]: 6.1 µM | GI50 [5]: 0.489 µM | TGI [5]: 3.99 µM | GI50 [6]: 0.218 µM | TGI [6]: 0.489 µM | GI50 [7]: 0.185 µM | TGI [7]: 0.744 µM | GI50 [8]: 1.32 µM | TGI [8]: 5.29 µM | GI50 [9]: 1.37 µM | TGI [9]: 5.59 µM | GI50 [10]: 0.778 µM | TGI [10]: 2.55 µM

CS(=O)(=O)c1ccc(Cl)c([N+](=O)[O-])c1
GI50 [1]: 11 µM | TGI [1]: 24 µM | GI50 [2]: 4.63 µM | TGI [2]: 17 µM | GI50 [3]: 10.1 µM | TGI [3]: 23.4 µM | GI50 [4]: 20.8 µM | TGI [4]: 46.9 µM | GI50 [5]: 19.1 µM | TGI [5]: 37.5 µM | GI50 [6]: 18.5 µM | TGI [6]: 37.9 µM | GI50 [7]: 19.2 µM | TGI [7]: 34.4 µM | GI50 [8]: 18.4 µM | TGI [8]: 32.3 µM | GI50 [9]: 12.5 µM | TGI [9]: 25.5 µM | GI50 [10]: 15.8 µM | TGI [10]: 31.6 µM

Cn1cc(C2=C(c3cn(C)c4ccc(N)cc34)C(=O)NC2=O)c2ccccc21
GI50 [1]: > 25 µM | TGI [1]: > 25 µM | GI50 [2]: 5.82 µM | TGI [2]: > 25 µM | GI50 [3]: 12.2 µM | TGI [3]: > 25 µM | GI50 [4]: 10.3 µM | TGI [4]: > 25 µM | GI50 [5]: 9 µM | TGI [5]: > 25 µM | GI50 [6]: 6.83 µM | TGI [6]: > 22.2 µM | GI50 [7]: 6.14 µM | TGI [7]: 24.4 µM | GI50 [8]: 8.99 µM | TGI [8]: > 25 µM | GI50 [9]: > 25 µM | TGI [9]: > 25 µM | GI50 [10]: > 25 µM | TGI [10]: > 25 µM

Cc1ccc(C(=O)Nc2ccc(CN3CCN(C)CC3)c(C(F)(F)F)c2)cc1C#Cc1cnc(N)c2ccc(F)cc12
GI50 [1]: 0.377 µM | TGI [1]: 0.798 µM | GI50 [2]: 0.133 µM | TGI [2]: 0.865 µM | GI50 [3]: 0.216 µM | TGI [3]: 0.557 µM | GI50 [4]: 0.436 µM | TGI [4]: 2.09 µM | GI50 [5]: 0.508 µM | TGI [5]: 1.66 µM | GI50 [6]: 0.633 µM | TGI [6]: 2.34 µM | GI50 [7]: 0.527 µM | TGI [7]: 1.24 µM | GI50 [8]: 0.684 µM | TGI [8]: 2.88 µM | GI50 [9]: 0.641 µM | TGI [9]: 1.81 µM | GI50 [10]: 0.594 µM | TGI [10]: 1.95 µM

Source: PubChem BioAssay (NCI)
